Like-named read-outs stand apart in the source and are kept apart here.
System: Raf-1^gof intestinal tumors
Conditions: for Log2 (fold) of luciferase activity relative to DMSO controls / Fold (luciferase activity relative to DMSO controls): ICCB compounds fed in vials to flies with one-day old Raf-1^gof tumors
[1] = screen of 480 ICCB compounds in vials, compounds fed to flies with one-day old Raf-1^gof tumors, assessed three days later, esg-Gal4 luciferase
[2] = screen of 480 ICCB compounds in vials, compounds fed to flies with one-day old Raf-1^gof tumors, assessed three days later, esg-Gal4 luciferase, averaged from multiple wells
[3] = assessed three days later, averaged from multiple wells
Wherever Fold (luciferase activity relative to DMSO controls) is given: test concentration or dose not given here.
Wherever Fold (luciferase activity, fold difference relative to DMSO controls) is given: test concentration or dose not given here.
Wherever Log2 (fold) (luciferase activity, log2 of the fold difference relative to DMSO controls) is given: test concentration or dose not given here.
Wherever Log2 (fold) of luciferase activity relative to DMSO controls is given: test concentration or dose not given here.

Structure (SMILES) | Log2 (fold) (luciferase activity, log2 of the fold difference relative to DMSO controls) [1] | Fold (luciferase activity, fold difference relative to DMSO controls) [2] | further results
CCCCCCCCCCCCC/C=C/[C@@H](O)[C@H](CO)N(C)C [N,N-DIMETHYLSPHINGOSINE] | −0.487 | 0.713 | –
CCCCC/C=C\C\C=C/C=C/C=C/[C@@H](SCC(NC(C)=O)C(=O)O)[C@@H](O)CCCC(=O)O (stereo partly shown) [N-ACETYL-LEUKOTRIENE E4] | −0.318 | 0.802 | –
CCCCC/C=C\C/C=C\C/C=C\C/C=C\CCCC(=O)NCC(=O)O [N-ARACHIDONOYLGLYCINE] | – | – | Fold (luciferase activity, fold difference relative to DMSO controls) (in vivo): 0.664; Log2 (fold) (luciferase activity, log2 of the fold difference relative to DMSO controls) (in vivo): −0.590
CCCCC/C=C\C/C=C\CCCCCCCC(=O)NCC(=O)O [N-LINOLEOYLGLYCINE] | −0.285 | 0.821 | –
COC(=O)C1=C(C)NC(C)=C(C(=O)OCCN(C)Cc2ccccc2)C1c1cccc([N+](=O)[O-])c1 (stereo not shown) [NICARDIPINE] | −0.433 | 0.741 | –
COC(=O)C1=C(C)NC(C)=C(C(=O)OC)C1c1ccccc1[N+](=O)[O-] [NIFEDIPINE] | −0.417 | 0.749 | –
O=C(O)c1cccnc1Nc1cccc(C(F)(F)F)c1 [NIFLUMIC ACID] | – | – | Log2 (fold) of luciferase activity relative to DMSO controls (assessed three days later): −0.201; Fold (luciferase activity relative to DMSO controls) [3]: 0.870 fold
COC(=O)C1=C(C)NC(C)=C(C(=O)OCCCN2CCC(c3ccccc3)(c3ccccc3)CC2)[C@H]1c1cccc([N+](=O)[O-])c1 [NIGULDIPINE] | – | – | Fold (luciferase activity, fold difference relative to DMSO controls) (in vivo): 0.812; Log2 (fold) (luciferase activity, log2 of the fold difference relative to DMSO controls) (in vivo): −0.301
COCCOC(=O)C1=C(C)NC(C)=C(C(=O)OC(C)C)C1c1cccc([N+](=O)[O-])c1 (stereo not shown) [NIMODIPINE] | −0.238 | 0.848 | –
CCOC(=O)C1=C(C)NC(C)=C(C(=O)OC)C1c1cccc([N+](=O)[O-])c1 (stereo not shown) [NITRENDIPINE] | −0.400 | 0.758 | –
O=C(O)c1cc([N+](=O)[O-])ccc1NCCCc1ccccc1 [NPPB] | −0.439 | 0.738 | –
CS(=O)(=O)Nc1ccc([N+](=O)[O-])cc1OC1CCCCC1 [NS-398] | −0.592 | 0.663 | –
O=c1[nH]c2cc(C(F)(F)F)ccc2n1-c1cc(C(F)(F)F)ccc1O [NS-1619] | −0.495 | 0.709 | –
O=C1C(SCCO)=C(SCCO)C(=O)c2ccccc21 [NSC-95397] | −0.495 | 0.709 | –
CCC(C)[C@H](NS(=O)(=O)c1cccc2ccccc12)C(=O)N[C@H](C=O)Cc1c[nH]c2ccccc12 (stereo partly drawn) [NapSul-Ile-Trp-CHO] | −0.554 | 0.681 | –
CS(=O)(=O)Nc1ccc([N+](=O)[O-])cc1Oc1ccccc1 [Nimesulide] | −0.264 | 0.833 | –
CCCCCCCCCCCCCCCCCCc1ccc(C(=O)/C=C/C(=O)O)cc1 [OBAA] | – | – | Log2 (fold) of luciferase activity relative to DMSO controls (assessed three days later): −0.169; Fold (luciferase activity relative to DMSO controls) [3]: 0.890 fold
CCCCCCCCCCCCCCCCOC[C@H](COP(=O)([O-])OCC[N+](C)(C)C)OC(C)=O [PAF C16] | – | – | Log2 (fold) of luciferase activity relative to DMSO controls (assessed three days later): −0.190; Fold (luciferase activity relative to DMSO controls) [3]: 0.876 fold
CCCCCCCC/C=C\CCCCCCCCOC[C@H](COP(=O)([O-])OCC[N+](C)(C)C)OC(C)=O [PAF C18:1] | −0.420 | 0.747 | –
CCCCCCCCCCCCCCCCCCOC[C@H](COP(=O)([O-])OCC[N+](C)(C)C)OC(C)=O [PAF C18] | −0.455 | 0.729 | –
CCCCCCCCCCCCCCCC(=O)NCCO [PALMITYLETHANOLAMIDE] | −0.486 | 0.714 | –
CC(C)(O)[C@H]1O[C@H]2CC[C@@]3(C)[C@@](O)(CC[C@H]4Cc5c([nH]c6ccccc56)[C@@]43C)C2=CC1=O [PAXILLINE] | – | – | Log2 (fold) of luciferase activity relative to DMSO controls (assessed three days later): −0.078; Fold (luciferase activity relative to DMSO controls) [3]: 0.948 fold
COC(=O)C1=C(C)NC(C)=C(C(=O)OCCSc2ccccc2)C1C (stereo not shown) [PCA 4248] | – | – | Log2 (fold) of luciferase activity relative to DMSO controls (assessed three days later): −0.180; Fold (luciferase activity relative to DMSO controls) [3]: 0.883 fold

Structure (SMILES) | Log2 (fold) (luciferase activity, log2 of the fold difference relative to DMSO controls) [1] | Fold (luciferase activity, fold difference relative to DMSO controls) [2] | further results
COc1cccc(-c2cc(=O)c3ccccc3o2)c1N [PD 98059] | −0.338 | 0.791 | –
Cc1ccc(N(CC2=NCCN2)c2cccc(O)c2)cc1 [PHENTOLAMINE] | −0.321 | 0.800 | –
O=C1NC(=O)C(c2ccccc2)(c2ccccc2)N1 [PHENYTOIN] | −0.300 | 0.812 | –
CCCCCCCCCCCCCCCC(=O)OCC(COP(=O)(O)O)OC(=O)CCCCCCCCCCCCCCC (stereo not shown) [PHOSPHATIDIC ACID, DIPALMITOYL] | −0.288 | 0.819 | –
O=c1[nH]c2ccccc2n1C1CCN(CCCC(c2ccc(F)cc2)c2ccc(F)cc2)CC1 [PIMOZIDE] | −0.425 | 0.745 | –
Cc1ccc(-c2nn(C(C)(C)C)c3ncnc(N)c23)cc1 [PP1] | – | – | Log2 (fold) of luciferase activity relative to DMSO controls (assessed three days later): 0.503; Fold (luciferase activity relative to DMSO controls) [3]: 1.418 fold
CC(C)(C)n1nc(-c2ccc(Cl)cc2)c2c(N)ncnc21 [PP2] | – | – | Log2 (fold) of luciferase activity relative to DMSO controls (assessed three days later): 0.062; Fold (luciferase activity relative to DMSO controls) [3]: 1.044 fold
O=C1C2CCN(CC2)C1(CO)CO [PRIMA-1] | – | – | Log2 (fold) of luciferase activity relative to DMSO controls (assessed three days later): −0.110; Fold (luciferase activity relative to DMSO controls) [3]: 0.926 fold
CCN(CC)CCNC(=O)c1ccc(N)cc1 [PROCAINAMIDE] | −0.346 | 0.787 | –
CCCNCC(O)COc1ccccc1C(=O)CCc1ccccc1 (stereo not shown) [PROPAFENONE] | −0.214 | 0.862 | –
CCCCC[C@H](O)/C=C/[C@H]1C=CC(=O)[C@@H]1CCCCCCC(=O)O [PROSTAGLANDIN A1] | −0.522 | 0.696 | –
CCCCC[C@H](O)/C=C/[C@H]1C=CC(=O)[C@@H]1C/C=C\CCCC(=O)O [PROSTAGLANDIN A2] | −0.295 | 0.815 | –
CCCCC[C@H](O)/C=C/C1=C(CCCCCCC(=O)O)C(=O)CC1 [PROSTAGLANDIN B1] | −0.408 | 0.753 | –
CCCCC[C@H](O)/C=C/C1=C(C/C=C\CCCC(=O)O)C(=O)CC1 [PROSTAGLANDIN B2] | −0.330 | 0.796 | –
CCCCC[C@H](O)/C=C/[C@H]1C(=O)C[C@H](O)[C@@H]1C/C=C\CCCC(=O)O [PROSTAGLANDIN D2] | −0.413 | 0.751 | –
CCCCC[C@H](O)/C=C/[C@H]1[C@H](O)CC(=O)[C@@H]1CCCCCCC(=O)O [PROSTAGLANDIN E1] | −0.561 | 0.678 | –
CCCCC[C@H](O)/C=C/[C@H]1[C@H](O)CC(=O)[C@@H]1C/C=C\CCCC(=O)O [PROSTAGLANDIN E2] | −0.223 | 0.857 | –
CCCCC[C@H](O)/C=C/[C@@H]1[C@@H](CCCCCCC(=O)O)[C@@H](O)C[C@H]1O [PROSTAGLANDIN F1a] | – | – | Log2 (fold) of luciferase activity relative to DMSO controls (assessed three days later): −0.208; Fold (luciferase activity relative to DMSO controls) [3]: 0.866 fold
CCCCC[C@H](O)/C=C/[C@@H]1[C@@H](C/C=C\CCCC(=O)O)[C@@H](O)C[C@H]1O [PROSTAGLANDIN F2a] | −0.450 | 0.732 | –
CCCCC[C@H](O)/C=C/[C@@H]1[C@H]2C/C(=C/CCCC(=O)[O-])O[C@H]2C[C@H]1O.[Na+] [PROSTAGLANDIN I2 Na] | −0.244 | 0.844 | –
CC(COc1ccccc1)N(CCCl)Cc1ccccc1 (stereo not shown) [Phenoxybenzamine] | −0.600 | 0.660 | –
Oc1cc(O)cc(/C=C/c2ccc(O)c(O)c2)c1 [Piceatannol, reference compound] | −1.020 | 0.493 | Fold (Table 3 summary of hits, Screen ICCB, luciferase relative to DMSO, fed three consecutive days in vials): 0.493 fold
